The values that follow come from patent US20160375006A1, “USES OF PARALOG-SELECTIVE INHIBITORS OF GSK3 KINASES” (priority 2012, published 2016).

As a reminder, the IC50 is the midpoint of a concentration-inhibition curve. A lower IC50 goes with greater potency.

Assay [1] has as its target T1, GSK3β (Homo sapiens, UniProt P49841). As to conditions: Caliper assay; GSK3β over GSK3α.
The target in assay [2] is T1, GSK3β. Description: biochemical.
In another assay the target is GSK3α (Homo sapiens, UniProt P49840). Description: biochemical.
Chain of GSK3α (P49840 whole entry): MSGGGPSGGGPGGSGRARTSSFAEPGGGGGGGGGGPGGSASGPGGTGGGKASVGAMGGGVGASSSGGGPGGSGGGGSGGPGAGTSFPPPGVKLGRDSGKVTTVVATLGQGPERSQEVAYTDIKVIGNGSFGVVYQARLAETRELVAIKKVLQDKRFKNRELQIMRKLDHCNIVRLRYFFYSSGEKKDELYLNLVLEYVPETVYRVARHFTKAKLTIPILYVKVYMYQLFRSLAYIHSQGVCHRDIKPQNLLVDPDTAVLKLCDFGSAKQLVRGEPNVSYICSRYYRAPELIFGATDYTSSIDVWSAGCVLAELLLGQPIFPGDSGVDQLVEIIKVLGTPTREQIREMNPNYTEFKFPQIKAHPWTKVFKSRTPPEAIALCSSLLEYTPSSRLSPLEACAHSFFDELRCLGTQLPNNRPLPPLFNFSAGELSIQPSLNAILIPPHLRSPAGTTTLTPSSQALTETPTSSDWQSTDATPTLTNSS

T1 sequence (P49841 whole entry): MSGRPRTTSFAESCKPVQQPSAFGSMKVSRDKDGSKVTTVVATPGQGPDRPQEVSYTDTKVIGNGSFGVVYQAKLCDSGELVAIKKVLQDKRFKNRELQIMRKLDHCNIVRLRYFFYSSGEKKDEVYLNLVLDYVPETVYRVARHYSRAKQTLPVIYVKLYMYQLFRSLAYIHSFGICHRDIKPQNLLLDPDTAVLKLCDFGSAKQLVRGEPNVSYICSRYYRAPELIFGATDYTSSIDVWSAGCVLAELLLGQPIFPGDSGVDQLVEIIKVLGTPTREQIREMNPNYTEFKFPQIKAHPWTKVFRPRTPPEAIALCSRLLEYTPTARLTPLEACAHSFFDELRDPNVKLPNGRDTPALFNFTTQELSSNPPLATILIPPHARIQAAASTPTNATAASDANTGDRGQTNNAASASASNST

Take `CC(C)c1[nH]nc2c1[C@@]1(CCc3ccccc31)C1=C(CC(C)(C)CC1=O)N2` (stereo in doubt) [Compound 242]: on GSK3β [1], the GSK3β fold selectivity is given as 5.1 fold. Besides, the results for the IC50 against GSK3β [2] and against GSK3α were 16 nM and 81 nM, respectively.
Taken in the same sequence, the figures for `CC(C)c1[nH]nc2c1[C@]1(CCc3ccccc31)C1=C(CC(C)(C)CC1=O)N2` (stereo in doubt) [Compound 243] were 6.6 fold, 27 nM and 178 nM.
Consider `CC1(C)CC(=O)C2=C(C1)Nc1n[nH]c(C3CC(F)(F)C3)c1[C@]2(C)c1cccc(C(F)(F)F)c1` (stereo in doubt) [Compound 248], for which the GSK3β fold selectivity on GSK3β [1] stood at 2.9 fold. Moreover, the results for the IC50 against GSK3β [2] and on GSK3α were 30 nM and 86 nM, respectively.
Take `CC1(C)CC(=O)C2=C(C1)Nc1n[nH]c(C3CC(F)(F)C3)c1[C@@]2(C)c1cccc(C(F)(F)F)c1` (stereo in doubt) [Compound 249]: the GSK3β fold selectivity at GSK3β [1] was determined as 3.1 fold. The IC50 is 1550 nM at GSK3β [2] and 4790 nM against GSK3α.
`COc1ccccc1[C@H]1C2=C(CC(C)(C)CC2=O)Nc2n[nH]c(C3CC(F)(F)C3)c21` (stereo in doubt) [Compound 251]: the GSK3β fold selectivity at GSK3β [1] is 14.9 fold. The figures for the IC50 at GSK3β [2] and at GSK3α were 84 nM and 1250 nM, respectively.
Taken in the same sequence, the figures for `COc1ccccc1[C@@H]1C2=C(CC(C)(C)CC2=O)Nc2n[nH]c(C3CC(F)(F)C3)c21` (stereo in doubt) [Compound 252] were 8.3 fold, 23 nM and 191 nM.
Taken in the same sequence, the figures for `COc1ccccc1[C@]1(C)C2=C(CC(C)(C)CC2=O)Nc2n[nH]c(C3CC(F)(F)C3)c21` (stereo in doubt) [Compound 254] were 3.7 fold, 2520 nM and 9330 nM.
The matching figures for `COc1ccccc1[C@@]1(C)C2=C(CC(C)(C)CC2=O)Nc2n[nH]c(C3CC(F)(F)C3)c21` (stereo in doubt) [Compound 255]: 2.1 fold, 13400 nM and 28000 nM.
On to `CC(C)(C)Cc1[nH]nc2c1[C@](C)(c1ccccc1)C1=C(CC(C)(C)CC1=O)N2` (stereo in doubt) [Compound 272], for which the GSK3β fold selectivity at GSK3β [1] was determined as 14.3 fold. Besides, the IC50 worked out at 15 nM against GSK3β [2] and 215 nM at GSK3α.
Taken in the same sequence, the figures for `CC(C)(C)Cc1[nH]nc2c1[C@@](C)(c1ccccc1)C1=C(CC(C)(C)CC1=O)N2` (stereo in doubt) [Compound 273] were 6.4 fold, 1050 nM and 6700 nM.
The matching figures for `CC(C)(C)Cc1[nH]nc2c1[C@](C)(c1ccc(F)cc1)C1=C(CC(C)(C)CC1=O)N2` (stereo in doubt) [Compound 276]: 10.2 fold, 104 nM and 1060 nM.
Taken in the same sequence, the figures for `CC(C)(C)Cc1[nH]nc2c1[C@@](C)(c1ccc(F)cc1)C1=C(CC(C)(C)CC1=O)N2` (stereo in doubt) [Compound 277] were 3.0 fold, 949 nM and 2800 nM.
As for `COc1ccccc1[C@H]1C2=C(CC(C)(C)CC2=O)Nc2n[nH]c(CC(C)(C)C)c21` (stereo in doubt) [Compound 279], at GSK3β [1], the GSK3β fold selectivity was determined as 9.6 fold. Further, the IC50 is 14 nM against GSK3β [2] and 135 nM at GSK3α.
At GSK3β [1], `COc1ccccc1[C@@H]1C2=C(CC(C)(C)CC2=O)Nc2n[nH]c(CC(C)(C)C)c21` (stereo in doubt) [Compound 280] gave a GSK3β fold selectivity of 5.6 fold. Also, the IC50 came to 1910 nM against GSK3β [2] and 10600 nM on GSK3α.
The matching figures for `CC(C)(C)Cc1[nH]nc2c1[C@@]1(CCc3ccccc31)C1=C(CC(C)(C)CC1=O)N2` (stereo in doubt) [Compound 282]: 16.5 fold, 1.7 nM and 28 nM.
The matching figures for `CC(C)(C)Cc1[nH]nc2c1[C@]1(CCc3ccccc31)C1=C(CC(C)(C)CC1=O)N2` (stereo in doubt) [Compound 283]: 9.0 fold, 212 nM and 1910 nM.
Consider `CC(C)(C)Cc1[nH]nc2c1[C@@]1(CCc3cc(F)ccc31)C1=C(CC(C)(C)CC1=O)N2` (stereo in doubt) [Compound 285], for which the GSK3β fold selectivity on GSK3β [1] was 22.6 fold. Besides, the IC50 at GSK3β [2] came out at 11 nM; against GSK3α it was 249 nM.
Taken in the same sequence, the figures for `CC(C)(C)Cc1[nH]nc2c1[C@]1(CCc3cc(F)ccc31)C1=C(CC(C)(C)CC1=O)N2` (stereo in doubt) [Compound 286] were 6.0 fold, 790 nM and 4760 nM.
The matching figures for `CC(C)(C)Cc1[nH]nc2c1[C@@]1(CCOc3ccccc31)C1=C(CC(C)(C)CC1=O)N2` (stereo in doubt) [Compound 288]: 7.7 fold, 18 nM and 139 nM.
Taken in the same sequence, the figures for `CC(C)(C)Cc1[nH]nc2c1[C@]1(CCOc3ccccc31)C1=C(CC(C)(C)CC1=O)N2` (stereo in doubt) [Compound 289] were 5.6 fold, 530 nM and 2980 nM.
Consider `CCC(C)(C)Cc1[nH]nc2c1[C@](C)(c1ccccc1)C1=C(CC(C)(C)CC1=O)N2` (stereo in doubt) [Compound 291], for which the GSK3β fold selectivity on GSK3β [1] is 6.4 fold. Besides, the IC50 on GSK3β [2] turned out to be 52 nM; at GSK3α it was 332 nM.
The matching figures for `CCC(C)(C)Cc1[nH]nc2c1[C@@](C)(c1ccccc1)C1=C(CC(C)(C)CC1=O)N2` (stereo in doubt) [Compound 292]: 4.0 fold, 3020 nM and 12000 nM.
Taken in the same sequence, the figures for `CCC(C)(C)Cc1[nH]nc2c1[C@@]1(CCc3cc(F)ccc31)C1=C(CC(C)(C)CC1=O)N2` (stereo in doubt) [Compound 293] were 11.3 fold, 127 nM and 1440 nM.
As for `CCC(C)(C)Cc1[nH]nc2c1[C@]1(CCc3cc(F)ccc31)C1=C(CC(C)(C)CC1=O)N2` (stereo in doubt) [Compound 294], the GSK3β fold selectivity on GSK3β [1] turned out to be 6.1 fold. In addition, the IC50 came to 785 nM on GSK3β [2] and 4760 nM at GSK3α.
The matching figures for `CC(C)c1[nH]nc2c1[C@](C)(c1ccccc1)C1=C(CC(C)(C)CC1=O)N2` (stereo in doubt) [Compound 297]: 2.3 fold, 24 nM and 56 nM.
Taken in the same sequence, the figures for `CC(C)c1[nH]nc2c1[C@@](C)(c1ccccc1)C1=C(CC(C)(C)CC1=O)N2` (stereo in doubt) [Compound 298] were 2.1 fold, 229 nM and 479 nM.
Taken in the same sequence, the figures for `CC1(C)CC(=O)C2=C(C1)Nc1n[nH]c(C3CCCC3)c1[C@]2(C)c1ccccc1` (stereo in doubt) [Compound 301] were 2.9 fold, 372 nM and 1060 nM.
`CC1(C)CC(=O)C2=C(C1)Nc1n[nH]c(C3CCCC3)c1[C@@]2(C)c1ccccc1` (stereo in doubt) [Compound 302]: the GSK3β fold selectivity at GSK3β [1] came to 5.2 fold. Besides, the half-maximal inhibitory concentration (IC50) on GSK3β [2] was determined as 5280 nM; against GSK3α, 27500 nM.
Taken in the same sequence, the figures for `CC1(C)CC(=O)C2=C(C1)Nc1n[nH]c(C3CCCCC3)c1[C@]2(C)c1ccccc1` (stereo in doubt) [Compound 304] were 2.4 fold, 977 nM and 2380 nM.
Taken in the same sequence, the figures for `CC1(C)CC(=O)C2=C(C1)Nc1n[nH]c(C3CCCCC3)c1[C@@]2(C)c1ccccc1` (stereo in doubt) [Compound 305] were 3.4 fold, 5060 nM and 17400 nM.
The matching figures for `CC(C)Cc1[nH]nc2c1[C@](C)(c1ccccc1)C1=C(CC(C)(C)CC1=O)N2` (stereo in doubt) [Compound 307]: 5.8 fold, 41 nM and 237 nM.
In the case of `CC(C)Cc1[nH]nc2c1[C@@](C)(c1ccccc1)C1=C(CC(C)(C)CC1=O)N2` (stereo in doubt) [Compound 308], the GSK3β fold selectivity on GSK3β [1] was 5.5 fold. In addition, the IC50 against GSK3β [2] stood at 4040 nM; against GSK3α, 22300 nM.
Taken in the same sequence, the figures for `CC(C)c1[nH]nc2c1[C@](C)(c1ccccc1F)C1=C(CC(C)(C)CC1=O)N2` (stereo in doubt) [Compound 312] were 5.8 fold, 66 nM and 386 nM.
Taken in the same sequence, the figures for `CC(C)c1[nH]nc2c1[C@@](C)(c1ccccc1F)C1=C(CC(C)(C)CC1=O)N2` (stereo in doubt) [Compound 313] were 11.3 fold, 385 nM and 4340 nM.
With `CC(C)c1[nH]nc2c1[C@](C)(c1ccccc1Cl)C1=C(CC(C)(C)CC1=O)N2` (stereo in doubt) [Compound 316], the GSK3β fold selectivity at GSK3β [1] is given as 8.9 fold. Besides, the IC50 against GSK3β [2] was found to be 703 nM; at GSK3α it was 6280 nM.
The matching figures for `CC(C)c1[nH]nc2c1[C@@](C)(c1ccccc1Cl)C1=C(CC(C)(C)CC1=O)N2` (stereo in doubt) [Compound 317]: 3.8 fold, 3430 nM and 12900 nM.
The matching figures for `CC1(C)CC(=O)C2=C(C1)Nc1n[nH]c(Cc3ccccc3)c1[C@]2(C)c1ccccc1` (stereo in doubt) [Compound 327]: 3.3 fold, 185 nM and 607 nM.
